What was measured:
Assay type in all cases: cell-based
human A2A receptor = biological target: T1, human A2A receptor (Homo sapiens, UniProt P29274); assay: functional cAMP (HTRF) assay, recombinant HEK293 cells expressing human A2A receptor, agonist NECA
T1 construct: expressed in transfected cells; host or cells: HEK293

A2B receptors = biological target: T2, A2B receptors (Homo sapiens, UniProt P29275); assay: functional cAMP (HTRF) assay, recombinant HEK293 cells expressing human A2B receptor, agonist NECA; parameters: expressed in transfected cells; host or cells: HEK293
T2 sequence (P29275 1-332): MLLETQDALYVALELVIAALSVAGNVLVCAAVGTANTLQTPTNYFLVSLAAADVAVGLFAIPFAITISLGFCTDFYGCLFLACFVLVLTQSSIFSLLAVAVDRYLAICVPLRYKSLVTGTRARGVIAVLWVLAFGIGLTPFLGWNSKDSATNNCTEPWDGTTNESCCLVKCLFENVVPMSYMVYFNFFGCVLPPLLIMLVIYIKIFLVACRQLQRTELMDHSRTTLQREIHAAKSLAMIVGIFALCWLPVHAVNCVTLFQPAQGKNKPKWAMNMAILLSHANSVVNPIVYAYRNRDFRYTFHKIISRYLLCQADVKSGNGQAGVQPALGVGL

human A1 receptor = biological target: T3, human A1 receptor (Homo sapiens, UniProt P30542); assay: functional cAMP (HTRF) assay, recombinant CHO cells expressing human A1 receptor, forskolin, agonist CPA
T3 construct: expressed in transfected cells; host or cells: CHO
T3 sequence (P30542 1-326): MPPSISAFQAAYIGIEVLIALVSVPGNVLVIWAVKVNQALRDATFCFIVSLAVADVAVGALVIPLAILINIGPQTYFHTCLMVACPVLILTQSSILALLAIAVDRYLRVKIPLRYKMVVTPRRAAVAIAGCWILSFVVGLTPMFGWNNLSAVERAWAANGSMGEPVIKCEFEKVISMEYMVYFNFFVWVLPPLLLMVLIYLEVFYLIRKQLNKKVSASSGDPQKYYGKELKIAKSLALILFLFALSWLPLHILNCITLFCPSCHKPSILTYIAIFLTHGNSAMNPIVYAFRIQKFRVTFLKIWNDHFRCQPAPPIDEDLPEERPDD
Method: The functional activities of human A2A, A2B, A1 and A3 receptors were determined by quantification of cAMP, being the second messenger for adenosine receptors.
For human A1 and A3 receptors, recombinant CHO cells, expressing either A1 or A3-receptor, were used. As both receptors couple to Gi proteins, the assay protocol was adapted:
Cells were seeded into 384-well plates, forskolin, test compounds and agonists (CPA for A1- and IB-MECA for A3-receptor) were added. After 30 min incubation, HTRF reagents (cAMP dynamic 2, Cis Bio) were added and the cellular cAMP levels were determined using the ENVISION (Perkin Elmer) plate reader. Obtained raw data were normalized against the inhibitor control and the neural control (DMSO) and the normalized data were fitted using GeneData software.

human A3 receptor = biological target: T4, human A3 receptor (Homo sapiens, UniProt P0DMS8); assay: functional cAMP (HTRF) assay, recombinant CHO cells expressing human A3 receptor, forskolin, agonist IB-MECA
T4 construct: expressed in transfected cells; host or cells: CHO
T4 sequence (P0DMS8 1-318): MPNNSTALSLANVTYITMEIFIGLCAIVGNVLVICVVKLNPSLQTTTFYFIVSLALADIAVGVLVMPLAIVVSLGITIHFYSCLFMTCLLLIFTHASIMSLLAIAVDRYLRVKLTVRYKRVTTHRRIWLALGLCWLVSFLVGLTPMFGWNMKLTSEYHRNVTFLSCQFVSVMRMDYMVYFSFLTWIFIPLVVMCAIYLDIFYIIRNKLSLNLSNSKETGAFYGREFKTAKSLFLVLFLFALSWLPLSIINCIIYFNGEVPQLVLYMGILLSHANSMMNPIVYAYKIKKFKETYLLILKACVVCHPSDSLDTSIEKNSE
Outline: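 Recombinant CHO cells expressing A1 or A3 receptor (Gi-coupled) were stimulated with forskolin together with test compound and agonist (CPA for A1, IB-MECA for A3), incubated 30 min, then cellular cAMP was read by HTRF. Data were normalized to inhibitor control and DMSO neutral control, then curve-fitted.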

T1 sequence (P29274 whole entry): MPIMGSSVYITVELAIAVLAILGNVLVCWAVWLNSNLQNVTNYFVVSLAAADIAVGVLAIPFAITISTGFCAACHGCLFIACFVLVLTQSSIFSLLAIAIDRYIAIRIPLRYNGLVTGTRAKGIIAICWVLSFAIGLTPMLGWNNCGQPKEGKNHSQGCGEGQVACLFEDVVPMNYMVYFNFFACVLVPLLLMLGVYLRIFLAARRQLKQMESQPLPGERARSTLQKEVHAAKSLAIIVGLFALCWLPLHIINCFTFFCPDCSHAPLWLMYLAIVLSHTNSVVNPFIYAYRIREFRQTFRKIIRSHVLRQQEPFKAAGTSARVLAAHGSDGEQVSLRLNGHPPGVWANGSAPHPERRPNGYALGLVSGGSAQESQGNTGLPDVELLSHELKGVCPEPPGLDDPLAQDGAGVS

SMILES: COc1ccc(-c2cnn(C)c2)c2nc(NC(=O)c3ccnc(Br)c3)[nH]c12 [compound 95, 2-bromo-N-[7-methoxy-4-(1-methyl-1H-pyrazol-4-yl)-1H-1,3-benzodiazol-2-yl]pyridine-4-carboxamide]
- IC50 (human A2A receptor): < 10 nM
- IC50 (A2B receptors): < 1000 nM
- IC50 (human A1 receptor): < 1000 nM
- IC50 (human A3 receptor): < 10 nM

SMILES: COc1ccc(-c2cnn(C)c2)c2nc(NC(=O)c3ccc4ocnc4c3)[nH]c12 [compound 98, N-[7-methoxy-4-(1-methyl-1H-pyrazol-4-yl)-1H-1,3-benzodiazol-2-yl]-1,3-benzoxazole-5-carboxamide]
- IC50 (human A2A receptor): < 100 nM
- IC50 (A2B receptors): < 1000 nM
- IC50 (human A1 receptor): > 1000 nM
- IC50 (human A3 receptor): < 1000 nM

SMILES: COc1ccc(N2CCOCC2)c2nc(NC(=O)c3ccc(O)c(N)c3)[nH]c12 [compound 99, 3-amino-4-hydroxy-N-[7-methoxy-4-(morpholin-4-yl)-1H-1,3-benzodiazol-2-yl]benzamide]
- IC50 (human A2A receptor): < 10 nM
- IC50 (A2B receptors): > 1000 nM
- IC50 (human A1 receptor): > 1000 nM
- IC50 (human A3 receptor): > 1000 nM

SMILES: COc1ccc(-c2cnn(C)c2)c2nc(NC(=O)c3ccc4c(c3)CCO4)[nH]c12 [compound 101, N-[7-methoxy-4-(1-methyl-1H-pyrazol-4-yl)-1H-1,3-benzodiazol-2-yl]-2,3-dihydro-l-benzofuran-5-carboxamide]
- IC50 (human A2A receptor): < 10 nM
- IC50 (A2B receptors): < 1000 nM
- IC50 (human A1 receptor): < 1000 nM
- IC50 (human A3 receptor): < 1000 nM

SMILES: C#CCC1(O)CCN(C(=O)Nc2nc3c(C4CCOCC4)ccc(OC)c3[nH]2)CC1 [compound 102, 4-hydroxy-N-[7-methoxy-4-(oxan-4-yl)-1H-1,3-benzodiazol-2-yl]-4-(prop-2-yn-1-yl)piperidine-1-carboxamide]
- IC50 (human A2A receptor): < 10 nM
- IC50 (A2B receptors): > 1000 nM
- IC50 (human A1 receptor): > 1000 nM
- IC50 (human A3 receptor): > 1000 nM

SMILES: COc1ccc(C2CCOCC2)c2nc(NC(=O)N3CCC(O)(Cc4ccccc4)CC3)[nH]c12 [compound 103, 4-benzyl-4-hydroxy-N-[7-methoxy-4-(oxan-4-yl)-1H-1,3-benzodiazol-2-yl]piperidine-1-carboxamide]
- IC50 (human A2A receptor): < 10 nM
- IC50 (A2B receptors): < 1000 nM
- IC50 (human A1 receptor): < 1000 nM
- IC50 (human A3 receptor): > 1000 nM

SMILES: COc1ccc(-c2cnn(C)c2)c2nc(NC(=O)c3ccnc(N4CC[C@](C)(O)C4)c3)[nH]c12 [compound 104, 2-[(3S)-3-hydroxy-3-methylpyrrolidin-1-yl]-N-[7-methoxy-4-(1-methyl-1H-pyrazol-4-yl)-1H-1,3-benzodiazol-2-yl]pyridine-4-carboxamide]
- IC50 (human A2A receptor): < 10 nM
- IC50 (A2B receptors): > 1000 nM
- IC50 (human A1 receptor): > 1000 nM
- IC50 (human A3 receptor): < 1000 nM

SMILES: COc1ccc(-c2cnn(C)c2)c2nc(NC(=O)c3ccnc(N4CCC(C)(O)CC4)c3)[nH]c12 [compound 105]
- IC50 (human A2A receptor): < 10 nM
- IC50 (A2B receptors): < 1000 nM
- IC50 (human A1 receptor): > 1000 nM
- IC50 (human A3 receptor): < 1000 nM

SMILES: COc1ccc(-c2cnn(C)c2)c2nc(NC(=O)c3ccnc(N4CCC5(CCOC5)C4)c3)[nH]c12 (stereo not drawn) [compound 106, N-[7-methoxy-4-(1-methyl-1H-pyrazol-4-yl)-1H-1,3-benzodiazol-2-yl]-2-{2-oxa-7-azaspiro[4.4]nonan-7-yl}pyridine-4-carboxamide]
- IC50 (human A2A receptor): < 10 nM
- IC50 (A2B receptors): > 1000 nM
- IC50 (human A1 receptor): > 1000 nM
- IC50 (human A3 receptor): < 1000 nM

SMILES: COc1ccc(C2CCOCC2)c2nc(NC(=O)c3ccc4c(c3)CCO4)[nH]c12 [compound 108, N-[7-methoxy-4-(oxan-4-yl)-1H-1,3-benzodiazol-2-yl]-2,3-dihydro-1-benzofuran-5-carboxamide]
- IC50 (human A2A receptor): < 10 nM
- IC50 (A2B receptors): < 1000 nM
- IC50 (human A1 receptor): > 1000 nM
- IC50 (human A3 receptor): < 1000 nM

SMILES: COc1ccc(C2CCOCC2)c2nc(NC(=O)c3ccnc(N4CCC5(CCOC5)C4)c3)[nH]c12 (stereo not drawn) [compound 119, N-[7-methoxy-4-(oxan-4-yl)-1H-1,3-benzodiazol-2-yl]-2-{2-oxa-7-azaspiro[4.4]nonan-7-yl}pyridine-4-carboxamide]
- IC50 (human A2A receptor): < 10 nM
- IC50 (A2B receptors): > 1000 nM
- IC50 (human A1 receptor): > 1000 nM
- IC50 (human A3 receptor): > 1000 nM

SMILES: COc1ccc(C2CCOCC2)c2nc(NC(=O)c3ccnc(N4CCC(C)(O)C4)c3)[nH]c12 (stereo not drawn) [compound 122, 2-(3-hydroxy-3-methylpyrrolidin-1-yl)-N-[7-methoxy-4-(oxan-4-yl)-1H-1,3-benzodiazol-2-yl]pyridine-4-carboxamide]
- IC50 (human A2A receptor): < 10 nM
- IC50 (A2B receptors): > 1000 nM
- IC50 (human A1 receptor): > 1000 nM
- IC50 (human A3 receptor): > 1000 nM

SMILES: COCCC1CCN(C(=O)Nc2nc3c(-c4cnn(C)c4)ccc(OC)c3[nH]2)C1 (stereo not drawn) [compound 134, N-[7-methoxy-4-(1-methyl-1H-pyrazol-4-yl)-1H-1,3-benzodiazol-2-yl]-3-(2-methoxyethyl)pyrrolidine-1-carboxamide]
- IC50 (human A2A receptor): < 100 nM
- IC50 (A2B receptors): < 1000 nM
- IC50 (human A1 receptor): > 1000 nM
- IC50 (human A3 receptor): > 1000 nM

SMILES: COc1ccc(-c2ccc(F)cc2)c2nc(NC(=O)N3CCC(C)(O)CC3)[nH]c12 [compound 144, N-[4-(4-fluorophenyl)-7-methoxy-1H-1,3-benzodiazol-2-yl]-4-hydroxy-4-methylpiperidine-1-carboxamide]
- IC50 (human A2A receptor): < 10 nM
- IC50 (A2B receptors): < 1000 nM
- IC50 (human A1 receptor): < 1000 nM
- IC50 (human A3 receptor): > 1000 nM

SMILES: COc1ccc(-c2cnn(C3CCN(C(=O)OC(C)(C)C)CC3)c2)c2[nH]c(NC(=O)N3CCC(C)(O)CC3)nc12 [compound 145, tert-butyl 4-(4-{2-[(4-hydroxy-4-methylpiperidine-1-carbonyl)amino]-4-methoxy-1H-1,3-benzodiazol-7-yl}-1H-pyrazol-1-yl)piperidine-1-carboxylate]
- IC50 (human A2A receptor): < 10 nM
- IC50 (A2B receptors): > 1000 nM
- IC50 (human A1 receptor): > 1000 nM
- IC50 (human A3 receptor): > 1000 nM

SMILES: COc1ccc(C2CCOCC2)c2nc(NC(=O)N3CC[C@@]4(CCOC4)C3)[nH]c12 [compound 150, (5R)-N-[7-methoxy-4-(oxan-4-yl)-1H-1,3-benzodiazol-2-yl]-2-oxa-7-azaspiro[4.4]nonane-7-carboxamide]
- IC50 (human A2A receptor): < 10 nM
- IC50 (A2B receptors): > 1000 nM
- IC50 (human A1 receptor): > 1000 nM
- IC50 (human A3 receptor): > 1000 nM

SMILES: COc1ccc(-c2cnn(CCC(C)C)c2)c2nc(NC(=O)N3CCC(C)(O)CC3)[nH]c12 [compound 151, 4-hydroxy-N-{7-methoxy-4-[1-(3-methylbutyl)-1H-pyrazol-4-yl]-1H-1,3-benzodiazol-2-yl}-4-methylpiperidine-1-carboxamide]
- IC50 (human A2A receptor): < 10 nM
- IC50 (A2B receptors): > 1000 nM
- IC50 (human A1 receptor): < 1000 nM
- IC50 (human A3 receptor): > 1000 nM

SMILES: COc1ccc(-c2cnn(C)c2)c2nc(NC(=O)c3ccc(CN4CCOCC4)cc3)[nH]c12 [compound 152, N-[7-methoxy-4-(1-methyl-1H-pyrazol-4-yl)-1H-1,3-benzodiazol-2-yl]-4-[(morpholin-4-yl)methyl]benzamide]
- IC50 (human A2A receptor): < 100 nM
- IC50 (A2B receptors): < 1000 nM
- IC50 (human A1 receptor): > 1000 nM
- IC50 (human A3 receptor): < 1000 nM

SMILES: COc1ccc(C2CCOCC2)c2nc(NC(=O)c3ccnc(N4CC[C@@]5(CCOC5)C4)c3)[nH]c12 [compound 153, N-[7-methoxy-4-(oxan-4-yl)-1H-1,3-benzodiazol-2-yl]-2-[(5R)-2-oxa-7-azaspiro[4.4]nonan-7-yl]pyridine-4-carboxamide]
- IC50 (human A2A receptor): < 10 nM
- IC50 (A2B receptors): > 1000 nM
- IC50 (human A1 receptor): > 1000 nM
- IC50 (human A3 receptor): > 1000 nM

SMILES: COc1ccc(C2CCOCC2)c2nc(NC(=O)c3ccnc(N4CC[C@]5(CCOC5)C4)c3)[nH]c12 [compound 154, N-[7-methoxy-4-(oxan-4-yl)-1H-1,3-benzodiazol-2-yl]-2-[(5S)-2-oxa-7-azaspiro[4.4]nonan-7-yl]pyridine-4-carboxamide]
- IC50 (human A2A receptor): < 10 nM
- IC50 (A2B receptors): > 1000 nM
- IC50 (human A1 receptor): > 1000 nM
- IC50 (human A3 receptor): < 1000 nM

SMILES: COc1ccc(-c2cnn(C)c2)c2[nH]c(NC(=O)c3cnn(C)c3)nc12 [compound 160, N-[7-methoxy-4-(1-methyl-1H-pyrazol-4-yl)-1H-1,3-benzodiazol-2-yl]-1-methyl-1H-pyrazole-4-carboxamide]
- IC50 (human A2A receptor): < 10 nM
- IC50 (A2B receptors): < 100 nM
- IC50 (human A1 receptor): > 1000 nM
- IC50 (human A3 receptor): < 100 nM

Source: patent US11453647B2, “Benzimidazole derivatives as adenosine receptor antagonists” (Merck Patent GmbH, priority 2017, dated 2022)
